Source: publication PMC5040732, “Development of a Novel Quantitative Structure-Activity Relationship Model to Accurately Predict Pulmonary Absorption and Replace Routine Use of the Isolated Perfused Respiring Rat Lung Model” (Pharmaceutical Research, 2016)
Marks after values point to notes of the source that are not given here.

Tests used:
[1] = % of dose in solution in the dose formulation (dose analysis pre- and post-centrifugation); assay type: physicochemical; details: aqueous dose formulation
Source text: All compounds were formulated in an aqueous vehicle, the majority (79%) containing 0.2% Tween 80 in either water or saline. Due to the diverse nature of the molecules investigated, formulations were a mix of solutions and suspensions ranging from <1 to 100% compound in solution. Compound solubility effects were investigated using a tool compound available in three micronised salt forms with varying solubilities. The free base (FB), hydroxynapthoate (HNA) and hydrochloride (HCl) forms were each administered to the IPRLu model at a dose equivalent to 15 μg free base.
Data generated with the IPRLu model on 17 marketed drugs (14 out of 17 designed for inhaled delivery) are shown in Table I. All the compounds display a moderate to high extent of total dose in the perfusate at 20 minutes (10–100%), in keeping with the in-house observation that compounds displaying < <10% carry a high risk of accumulation in the lung upon repeat dosing, which can lead to developability issues and high attrition rates. The marketed compound set can be classified into two groups according to their solubility. The first group are reasonably soluble in the dose formulation (>80% of the parent compound in solution, determined by dose analysis pre- and post-centrifugation) and display similar values for %SDiP and %TDiP. The second group are only partially soluble in the dose formulation (<80% of the parent compound in solution) and therefore display greater values for %SDiP compared to %TDiP.

[2] = isolated perfused respiring rat lung (IPRLu) model, intratracheal instillation; details: for recovery at 20 min / half-life: male, CD, rat, 100 μL, pH 7.4; for recovery at 20 min: isolated perfused respiring rat lung (IPRLu), lungs in situ; for %SDiP: solubilised dose in perfusate at 20 mins; for %TDiP: total dose in perfusate at 20 mins
Description: The IPRLu model, including surgery, dosing and sample collection, was performed by the Laboratory Animal Sciences department at GSK. Methodology was based on that described by Tronde et al. (23;24) but with lungs remaining in situ and intratracheal instillation as the dosing technique. Prior to surgery male CD rats were anaesthetised with intraperitoneal ketamine and medetomidine (Dormitor^TM) at […] and 0.5 ml/kg respectively. In addition, 50U of heparin was administered intravenously via a tail vein. Following confirmation of anaesthesia, the front of the rib cage was removed to access heart and lungs, and the trachea cannulated and secured with a ligature. Respiration was transferred to a positive pressure small animal ventilator (Harvard Apparatus Ltd, Edenbridge, Kent, UK) and maintained at 40 breaths per minute with a tidal volume of 1.8 ml. Following exsanguination, the pulmonary artery and vein were cannulated through incisions in the right and left ventricles in order to isolate the blood pulmonary circulatory system. The rat was then raised and maintained at an angle of 45° using a custom made elevating chamber similar to that described by Brain et al. ([26]). […] After an initial first pass to flush blood from the lung vasculature, the perfusion buffer was then recirculated for approximately 10 minutes to equilibrate and attain the required flow rate. Lungs were visually inspected for leaks and signs of oedema ([27]). Compounds were administered either discretely or co-formulated (2–4 compounds) and experiments were carried out in duplicate. Doses (100 μL) were administered to the trachea slightly above the bifurcation point by introduction of a 50 mm needle Hamilton syringe into the tracheal cannula followed by 3 x 1 ml of air. The tracheal cannula was then reattached to the ventilator and total perfusate was collected over 1 min intervals for 20 mins. Perfusate aliquots (1 ml) were frozen (-20°C) along with terminal lung samples prior to analysis.
Homogenised lung and perfusate samples underwent protein precipitation by addition of a 3-fold excess of acetonitrile containing an internal standard. Following either filtration or centrifugation the resulting filtrate or supernatant was typically dried down under a nitrogen stream and then reconstituted in the mobile phase used for separation by HPLC. Following sample preparation lung and perfusate samples, along with residual dose formulations (pre- and post-centrifugation) were analysed by HPLC tandem mass spectrometry (LC-MS/MS), typically using a generic reverse phase chromatography gradient method with separation on a C18 column (50 x 2.1 mm, 3 μm) and an acidified mobile phase.
The cumulative amount of parent compound crossing the lung into the perfusate by the end of the 20 minute experiment was expressed as % of the total dose or as % of the dose originally in solution (solubilised dose). The relative rate of absorption across the lungs was also calculated, the percentage of the administered dose remaining in the lungs was plotted semilogarithimically against time and the initial rate of absorption expressed as a half-life.

[3] = other: intratracheal instillation
[4] = mean (n = 2), range in brackets
[5] = solubility in dose vehicle determined post study on a discrete weighing of the compound

SMILES | % Dose in solution [1] [%] | recovery at 20 min [2, 3] [%] | half-life [2, 3] [min] | %SDiP [2, 4] | %TDiP [2, 4] | also measured
COc1ccc(C[C@@H](C)NC[C@H](O)c2ccc(O)c(NC=O)c2)cc1.COc1ccc(C[C@@H](C)NC[C@H](O)c2ccc(O)c(NC=O)c2)cc1.O=C(O)/C=C/C(=O)O [Formoterol Fumerate] | 100 | – | – | 47 (42–52) % | 47 (42–52) % | Lung T1/2 (mins) ([2]; lung absorption half-life, mean (n = 2), range in brackets): 24 (22–26) mins; Recovery of total dose (%) ([2]; only where lung analysis was carried out, mean (n = 2), range in brackets): 73 (70–76) %
CC(=O)N[C@H]1[C@H]([C@H](O)[C@H](O)CO)OC(C(=O)O)=C[C@@H]1N=C(N)N [Zanamivir] | – | 104 | 7 | – | 100 (100–100) % | –
CCN(CC)CC(=O)Nc1c(C)cccc1C [Lidocaine] | 100 | – | – | – | 75 (64–82) % | %SDiP [2, 5]: 75^c %
C[C@@H]1C[C@H]2[C@@H]3C[C@H](F)C4=CC(=O)C=C[C@]4(C)[C@@]3(F)[C@@H](O)C[C@]2(C)[C@@]1(OC(=O)c1ccco1)C(=O)SCF [Fluticasone Furoate] | 3.2 | – | 153 | – | 10 (7–12) % | %SDiP [2, 5]: 300^c %; %SDiP ([2]; solubility in dose vehicle determined post study on a discrete weighing of the compound, listed as fluticasone furoate): > 100%
Nc1c(Br)cc(Br)cc1CN[C@H]1CC[C@H](O)CC1 [Ambroxol] | 95 | 70 | 39 | – | – | –
OCc1cc(C(O)CNCCCCCCOCCCCc2ccccc2)ccc1O (stereo not shown) [Salmeterol] | 36 | 69 | 146 | 41 (16–66) % | 15 (6–24) % | –
CCCc1c2oc(C(=O)O)cc(=O)c2cc2c(=O)cc(C(=O)O)n(CC)c12 [Nedocromil] | 24 | 85 | 32 | 125 (83–166) % | 32 (23–40) % | %SDiP ([2]; mean (n = 2), range in brackets, listed as nedocromil): > 100%
CC(C)[N+]1(C)[C@@H]2CC[C@H]1C[C@@H](OC(=O)C(CO)c1ccccc1)C2 (stereo partly shown) [Ipratropium Bromide] | 100 | – | – | – | – | –
CCCC1O[C@@H]2C[C@H]3[C@@H]4CCC5=CC(=O)C=C[C@]5(C)[C@H]4[C@@H](O)C[C@]3(C)[C@]2(C(=O)CO)O1 (stereo partly shown) [Budesonide] | 14 | 84 | 3.3 | 551 (540–561) % | 77 (76–79) % | %SDiP ([2]; mean (n = 2), range in brackets, listed as budesonide): > 100%

Continued, in another order:

% Dose in solution [1] [%] | recovery at 20 min [2, 3] [%] | half-life [2, 3] [min] | %SDiP [2, 4] | %TDiP [2, 4] | SMILES | also measured
42 | 139 | 15 | 96 (66–126) % | 41 (28–53) % | CC1(C)O[C@@H]2C[C@H]3[C@@H]4C[C@H](F)C5=CC(=O)C=C[C@]5(C)[C@H]4[C@@H](O)C[C@]3(C)[C@]2(C(=O)CO)O1 [Flunisolide] | %SDiP ([2]; mean (n = 2), range in brackets, listed as flunisolide): 100%
73 | 77 | 42 | – | 67 (57–78) % | CC(C)(O)c1ccccc1CC[C@@H](SCC1(CC(=O)O)CC1)c1cccc(/C=C/c2ccc3ccc(Cl)cc3n2)c1 [Montelukast] | –
100 | 81 | 8 | – | – | N=C(N)NC(=O)c1nc(Cl)c(N)nc1N [Amiloride] | –
55 | 78 | – | – | – | CC(C)(C)NCC(O)c1ccc(O)c(CO)c1 (stereo not shown) [Salbutamol] | –
88 | 91 | 273 | 12 (12) % | 11 (10,11) % | CCc1cc2c(cc1CC)CC(NC[C@H](O)c1ccc(O)c3[nH]c(=O)ccc13)C2 [Indacaterol] | %SDiP ([2]; mean (n = 2), range in brackets, listed as indacaterol): 12%
21 | – | 28 | 178 (176–180) % | 38 (38) % | C=CC[C@@H]1/C=C(\C)C[C@H](C)C[C@H](OC)[C@H]2O[C@@](O)(C(=O)C(=O)N3CCCC[C@H]3C(=O)O[C@H](/C(C)=C/[C@@H]3CC[C@@H](O)[C@H](OC)C3)[C@H](C)[C@@H](O)CC1=O)[C@H](C)C[C@@H]2OC [Tacrolimus (prograf), Tacrolimus] | %SDiP ([2]; mean (n = 2), range in brackets, listed as tacrolimus): > 100%
0.5 | – | 115 | – | 10 (10) % | CCC(=O)O[C@]1(C(=O)SCF)[C@H](C)C[C@H]2[C@@H]3C[C@H](F)C4=CC(=O)C=C[C@]4(C)[C@@]3(F)[C@@H](O)C[C@@]21C [Fluticasone Propionate] | %SDiP [2, 5]: 2000^c %; %SDiP ([2]; solubility in dose vehicle determined post study on a discrete weighing of the compound, listed as fluticasone propionate): > 100%
– | – | – | – | 61 (59–62) % | C[N+]1(C)[C@@H]2C[C@@H](OC(=O)C(O)(c3cccs3)c3cccs3)C[C@H]1[C@@H]1O[C@@H]12 [Tiotropium Bromide] | half-life [2]: 16 min
